Several values for one entry are separate records, joined by “and”; a condition that tells them apart may be missing. Equal entries are not always repeated.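 Each compound was tested at five concentrations against cells in 96-well plates for 48 hours. GI50 is the concentration that inhibits growth by half. At the TGI there is no net growth.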 A value given as a limit tells only on which side of the number the result lay.

Holding throughout (experiment): NCI tumour cell line growth inhibition, 48 h
Assay [1] concerns T-47D breast.
Assay [2] deals with HCC-2998 colon.
In assay [3] the test system is A498 renal.
In assay [4] the test system is NCI-H460 lung.
The test system of assay [5] is UACC-257 melanoma.
In assay [6] the test system is DU-145 prostate.
Assay [7] concerns OVCAR-8 ovarian.
Assay [8] deals with SNB-75 CNS.
The test system of assay [9] is SW-620 colon.
Assay [10] concerns NCI-H522 lung.

As for `COc1cc2nc3sc(C(=O)Nc4ccc(C(=O)OC(C)C)cc4)c(C(=O)Nc4ccc(Cl)cc4C)n3c(=O)c2cc1OC`, the GI50 in [1] is 5.59 µM; in assay [2], 9.5 µM; in [3] it was 4.69 µM; in [4], 3.05 µM; in assay [5] it was 18.4 µM; in assay [6], 1.25 µM. Also, the GI50 in [7] was 12.6 µM; in [8], 10.2 µM; in [9], 1.88 µM. Also, the TGI is 54.6 µM in assay [1]; over 100 µM in [2]; 26.3 µM in [3]; over 100 µM in assay [4]; 93.2 µM in [5]; 11.4 µM in [6]. Also, the results for the TGI in [7], in assay [8] and in [9] were over 100 µM, 27.8 µM and 25 µM, respectively.

Regarding `COc1ccc2c(c1)c(-c1ccc(-c3cn(S(=O)(=O)c4ccccc4)c4ccc(OC)cc34)s1)cn2S(=O)(=O)c1ccccc1`, the GI50 in [1], in [2], in assay [3], in [10], in assay [4] and in assay [6] was over 100 µM throughout. In addition, the GI50 in assay [8] and in assay [9] was over 100 µM throughout. In addition, the TGI in assay [1], in assay [2], in assay [3], in [10], in assay [4] and in assay [6] was over 100 µM in each case. Moreover, the TGI in assay [8] and in [9] was over 100 µM each time.

In the case of `COc1ccccc1OCC(=O)Nc1sc2c(c1C(N)=O)CCC2`, the GI50 in [1], in assay [2], in assay [3], in assay [10], in assay [4] and in [6] was over 100 µM each time. Besides, the values for the GI50 in assay [7], in [8] and in assay [9] were 12.7 µM, over 100 µM and over 100 µM, respectively. The TGI in assay [1], in [2], in [3], in [10], in assay [4] and in [6] was over 100 µM each time. Further, the TGI in assay [7], in assay [8] and in assay [9] was over 100 µM throughout.

`c1ccc(Cn2cc3c(c2-c2ccccc2)CCc2cnoc2-3)cc1`: the GI50 in assay [1] was 4.5 µM; in [3], 7.33 µM; in assay [10] it was 3.04 µM; in [4], 3.41 µM; in assay [5], 17.7 µM; in assay [6], 20.1 µM. Besides, the GI50 in assay [7] was 8.05 µM; in assay [8] it was 3.27 µM; in [9] it was 3.15 µM. The TGI in assay [1] was over 100 µM; in assay [3], over 100 µM; in assay [10] it was over 100 µM; in [4] it was 22.1 µM; in [5], over 100 µM; in [6] it was over 100 µM. For the same compound, the TGI was over 100 µM in assay [7], 63.4 µM in [8] and 53.9 µM in assay [9].

As to `CC1=C(C(=O)Nc2ccc(F)c(Cl)c2)C(c2ccccc2Cl)NC(=S)N1` (centres undefined), the GI50 in assay [1] is over 50 µM; in [3] it was 12.9 µM; in [10], 35.7 µM; in assay [4], 23.7 µM; in assay [5], 19.7 µM; in assay [6], over 50 µM. The GI50 in assay [7] is 42.7 µM; in assay [9] it was over 50 µM. The TGI was over 50 µM in assay [1]; 48.1 µM in assay [3]; over 50 µM in [10]; over 50 µM in assay [4]; 49.7 µM in assay [5]; over 50 µM in [6]. Moreover, the TGI in assay [7] and in assay [9] was over 50 µM throughout.

Turning to `CCCCCCCCCCCCCC(=O)O[C@H]1CC[C@H](NC(=O)[C@H](OC)[C@H](O)[C@@H](O)[C@H](O)/C=C/C(C)C)C(=O)NC1`, the TGI in assay [1] was over 100 µM; in assay [3], 51.2 µM and > 100 µM; in assay [5] it was 27.2 µM and 20.4 µM; in assay [6], 34.6 µM and > 100 µM; in assay [7] it was 20.5 µM and 14.3 µM; in [8], 38.8 µM. Further, in assay [9], the TGI was 11.2 µM and 12.8 µM. Further, the GI50 in [6] is 0.00512 µM; in [7] it was 0.00181 µM.

As to `N#C/C(=C\c1ccc(-c2ccc(Cl)cc2)o1)C(=O)Nc1ncc(Cc2ccc(Cl)cc2)s1`, the GI50 is 1.91 µM in [1]; 3.63 µM in assay [2]; 1.58 µM in assay [3]; 1.94 µM in [10]; 0.983 µM in assay [4]; 4.06 µM in assay [5]. Further, the values for the GI50 in assay [6], in assay [7] and in [8] were 2.53 µM, 1.81 µM and 1.38 µM, respectively. Moreover, the TGI was 5.2 µM in [1]; over 100 µM in assay [2]; 4.19 µM in assay [3]; 4.86 µM in assay [10]; 2.46 µM in assay [4]; over 100 µM in assay [5]. The TGI in [6] is 13.5 µM; in [7], 5.76 µM; in [8] it was 3.89 µM.

Consider `Oc1ccc(-c2nnc3sc(-c4ccc(F)c(Oc5ccccc5)c4)nn23)cc1`, for which the GI50 in assay [1] is 16.4 µM; in assay [2], 73.2 µM; in assay [10], 72.5 µM; in assay [4], 38.5 µM; in [5] it was over 100 µM; in assay [6] it was 35 µM. Also, the GI50 in assay [7] was 28.3 µM; in assay [8] it was 26.4 µM; in assay [9], 83 µM. In addition, the TGI in [1] is 76.3 µM; in assay [2], over 100 µM; in [10], over 100 µM; in assay [4] it was over 100 µM; in assay [5] it was over 100 µM; in [6], over 100 µM. For the same compound, the TGI was over 100 µM in assay [7], 62.1 µM in assay [8] and over 100 µM in [9].

On to `Cn1ccnc1C(=O)/C=C/c1ccc(C(=O)Nc2ccc(Cl)cc2)cc1`, for which the GI50 in assay [1] was 0.846 µM; in assay [2], 0.655 µM; in assay [3] it was 0.661 µM; in assay [10], 1.81 µM; in assay [4], 0.747 µM; in [5], 2.48 µM. In addition, the results for the GI50 in assay [6], in [7] and in assay [8] were 1.32 µM, 1.01 µM and 0.615 µM, respectively. Also, the TGI in [1] was over 33.3 µM; in [2], 1.43 µM; in assay [3], over 33.3 µM; in assay [10] it was 14 µM; in assay [4], 2 µM; in assay [5] it was over 33.3 µM. Moreover, the TGI in assay [6], in assay [7] and in assay [8] was over 33.3 µM in each case.

Consider `O=S(=O)(O)O.[NH-]C1CCCCC1[NH-].[Pt+2]` (centres undefined), for which the GI50 is over 100 µM in [2]; 32.3 µM in assay [3]; 23.6 µM in assay [10]; 41 µM in assay [4]; over 100 µM in assay [5]; 80.1 µM in [7]. The GI50 in assay [8] is 0.722 µM; in [9], 5.33 µM. In addition, the TGI in [2], in assay [3], in [10], in [4], in [5] and in [7] was over 100 µM each time. The TGI in [8] was 61.5 µM; in assay [9], over 100 µM.

As to `Cc1[nH]c2ccccc2c1C1Cc2ccccc2N1C(=O)/C=C/C=C/c1ccccc1` (centres undefined), the TGI in assay [2], in assay [3], in [10], in assay [4], in assay [5] and in assay [7] was over 100 µM each time. For the same compound, the TGI in assay [8] and in assay [9] was over 100 µM each time.

Take `CC1=CC(=NC(=O)CBr)C=C/C1=N\S(=O)(=O)c1ccccc1`: the GI50 in assay [1] is 2.1 µM; in [2], 16.5 µM; in assay [3] it was 14.3 µM; in [10], 1.61 µM; in assay [4] it was 15.1 µM; in [6], 3.63 µM. Besides, the GI50 in [7] was 3.29 µM; in assay [8], 13.5 µM; in assay [9], 3.03 µM. Also, the TGI in [1] was 5.04 µM; in assay [2], 31.3 µM; in assay [3] it was 28.2 µM; in [10], 3.72 µM; in assay [4], 34 µM; in [6] it was 12.2 µM. Besides, the figures for the TGI in assay [7], in assay [8] and in assay [9] were 11.1 µM, 30.4 µM and 10.1 µM, respectively.

Consider `Oc1ccccc1-c1nn(CNc2cccc(Cl)c2)c(=S)o1`, for which the GI50 in assay [1] was 28.7 µM; in [3], 60.1 µM; in assay [10], over 100 µM; in assay [4] it was 20.6 µM; in assay [5] it was over 100 µM; in [7] it was over 100 µM. Further, the GI50 in [9] is 27.2 µM. Further, the TGI in [1], in assay [3], in assay [10], in [4], in [5] and in [7] was over 100 µM in each case. For the same compound, in assay [9], the TGI was over 100 µM.

`Cc1cc(NS(=O)(=O)c2ccc(N=Nc3cc(N=Nc4ccc(S(=O)(=O)Nc5cc(C)nc(C)n5)cc4)c4c(NC(=O)C(Cl)Cl)cccc4c3OC(=O)C(Cl)Cl)cc2)nc(C)n1` (tested in a mixture with another compound): the TGI in assay [2] was 35.8 µM; in assay [3], 71.1 µM; in assay [10], 38.5 µM; in assay [4] it was over 100 µM; in assay [5], 70.2 µM; in assay [7] it was over 100 µM. Further, the TGI was 76.9 µM in [8] and 40.4 µM in assay [9].

Turning to `CS(=O)(=O)NNS(=O)(=O)c1cccc([N+](=O)[O-])c1`, the TGI in assay [2], in [3], in [10], in assay [4], in assay [5] and in assay [7] was over 100 µM each time. Besides, the TGI in assay [8] and in assay [9] was over 100 µM throughout.

Turning to `COc1cc(O)c2c(O)c3c(c4c2c1[C@]1(C4)C(C)=CCCC1(C)C)[C@H](O)[C@@]1(O)CC(=O)C(C(N)=O)=C(O)[C@@]1(O)C3=O`, the TGI turned out to be 1.81 µM in assay [1]; 0.743 µM in [3]; 0.332 µM in assay [10]; 0.664 µM in assay [4]; 0.931 µM in assay [5]; 2.43 µM in assay [6]. Also, the TGI in assay [7] was 1.73 µM; in assay [8] it was 0.794 µM; in assay [9], 1.2 µM.

Take `O=c1cccccc1NCCOCCNc1cccccc1=O`: the TGI in assay [2], in assay [3], in [10], in assay [4], in assay [5] and in [7] was over 100 µM each time. Moreover, the TGI in assay [8] and in assay [9] was over 100 µM each time.

For the compound `C=CCCC(OCOCCOC)c1cc(C)c(O[Si](C)(C)C(C)(C)C)c(C)c1` (centres undefined), the TGI was 27.5 µM in assay [2]; 70.6 µM in assay [3]; 25.4 µM in assay [10]; 32.1 µM in assay [4]; 26.6 µM in assay [5]; 39.8 µM in assay [7]. Moreover, the TGI came to 35.6 µM in [8] and 33.2 µM in assay [9].

For the compound `CC1CC2(C)ON=C(c3ccccc3)N2c2ccccc2S1` (centres undefined), the GI50 is 58.5 µM in [1]; 34.7 µM in [3]; 27.5 µM in assay [10]; 41.3 µM in assay [4]; 36.8 µM in [5]; 54.5 µM in [6]. Further, the GI50 in assay [7] is 37.3 µM; in [8] it was 41.8 µM; in assay [9] it was 39.3 µM. The compound also registered a TGI in assay [10] of 65.5 µM.

For the compound `COc1ccc2c(=O)c(C)c(-c3ccccc3)oc2c1CN(C)C`, the TGI in assay [2], in [3], in assay [10], in assay [4], in [5] and in [7] was over 100 µM each time. Also, the TGI in [8] was > 100 µM and 98.4 µM; in assay [9], over 100 µM.

These data come from PubChem BioAssay (NCI).
